Laboratory results reported in ChEMBL document CHEMBL1150752, “Inhibition of cow's milk xanthine oxidase by flavonoids” (J Nat Prod, 1988).

biological target: Xanthine dehydrogenase/oxidase (Bos taurus, UniProt P80457); experiment: Inhibition of cow milk xanthine oxidase at 50 ug/mL; conditions: cattle
Sequence (P80457 whole entry): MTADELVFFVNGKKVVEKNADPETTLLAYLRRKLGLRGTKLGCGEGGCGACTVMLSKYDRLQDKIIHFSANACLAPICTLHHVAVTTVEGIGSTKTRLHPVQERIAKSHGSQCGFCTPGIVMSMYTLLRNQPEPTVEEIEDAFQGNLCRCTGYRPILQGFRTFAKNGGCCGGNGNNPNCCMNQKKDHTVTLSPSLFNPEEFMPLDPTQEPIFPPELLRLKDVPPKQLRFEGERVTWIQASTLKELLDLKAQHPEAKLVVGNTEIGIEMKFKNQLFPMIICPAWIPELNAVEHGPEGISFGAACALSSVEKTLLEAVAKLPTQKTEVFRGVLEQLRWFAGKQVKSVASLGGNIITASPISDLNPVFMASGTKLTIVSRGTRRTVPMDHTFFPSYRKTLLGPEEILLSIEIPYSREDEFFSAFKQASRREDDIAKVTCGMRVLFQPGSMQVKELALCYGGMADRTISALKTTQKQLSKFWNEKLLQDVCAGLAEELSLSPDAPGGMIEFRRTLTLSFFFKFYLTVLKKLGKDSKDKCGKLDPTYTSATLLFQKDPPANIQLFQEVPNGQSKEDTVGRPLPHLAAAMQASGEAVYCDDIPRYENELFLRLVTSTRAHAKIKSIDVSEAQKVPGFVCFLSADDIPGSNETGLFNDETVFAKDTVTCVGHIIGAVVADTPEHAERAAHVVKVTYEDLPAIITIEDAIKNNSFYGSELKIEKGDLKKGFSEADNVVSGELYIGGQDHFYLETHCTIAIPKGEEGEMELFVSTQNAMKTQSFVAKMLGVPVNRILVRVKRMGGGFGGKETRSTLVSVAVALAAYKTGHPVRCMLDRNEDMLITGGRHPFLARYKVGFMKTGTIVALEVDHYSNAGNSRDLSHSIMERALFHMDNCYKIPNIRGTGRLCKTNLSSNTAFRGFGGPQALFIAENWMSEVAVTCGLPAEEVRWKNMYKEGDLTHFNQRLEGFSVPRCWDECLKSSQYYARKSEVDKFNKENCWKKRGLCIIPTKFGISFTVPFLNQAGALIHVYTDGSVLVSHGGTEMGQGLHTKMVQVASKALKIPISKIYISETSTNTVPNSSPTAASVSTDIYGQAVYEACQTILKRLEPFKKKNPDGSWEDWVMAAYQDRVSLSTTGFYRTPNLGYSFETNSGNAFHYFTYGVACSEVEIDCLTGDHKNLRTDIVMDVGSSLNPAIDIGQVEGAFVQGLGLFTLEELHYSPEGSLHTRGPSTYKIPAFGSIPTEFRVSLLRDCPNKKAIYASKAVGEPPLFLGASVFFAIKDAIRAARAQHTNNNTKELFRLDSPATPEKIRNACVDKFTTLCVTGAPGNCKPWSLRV

| inhibition at 50 µg/mL [%] | SMILES |
| --- | --- |
| 30.5 | COc1ccc(-c2cc(=O)c3c(O)cc(O[C@@H]4O[C@H](CO[C@@H]5OC[C@@H](O)[C@@H](O)[C@@H]5O)[C@@H](O)[C@H](O)[C@H]4O)cc3o2)cc1O |
| 21 | O=C(O[C@H]1[C@H](Oc2c(-c3ccc(O)c(O)c3)oc3cc(O)cc(O)c3c2=O)O[C@H](CO)[C@@H](O)[C@@H]1O)c1cc(O)c(O)c(O)c1 |
| 0 | O=c1cc(-c2ccc(O)c(O)c2)oc2cc(O[C@@H]3O[C@H](CO)[C@@H](O)[C@H](O)[C@H]3O)c([C@@H]3O[C@H](CO)[C@@H](O)[C@H](O)[C@H]3O)c(O)c12 |
| 0 | COc1cc2oc(-c3ccc(O[C@@H]4O[C@H](CO)[C@@H](O)[C@H](O)[C@H]4O)c(O)c3)cc(=O)c2c(O)c1OC |
| 0 | COc1cc(-c2cc(=O)c3c(O)c(OC)c(OC)cc3o2)ccc1O[C@@H]1O[C@H](CO)[C@@H](O)[C@H](O)[C@H]1O |
| 28.9 | COc1ccc(-c2cc(=O)c3c(O)cc(O[C@@H]4O[C@H](CO)[C@@H](O)[C@H](O)[C@H]4O)cc3o2)cc1O |
| 0.3 | COc1cc(-c2cc(=O)c3c(O)cc(O[C@H]4O[C@@H](C(=O)O)[C@H](O)[C@@H](O)[C@@H]4O)cc3o2)ccc1O |
| 15.1 | COc1ccc(-c2cc(=O)c3c(O)cc(O[C@@H]4O[C@H](CO[C@@H]5O[C@@H](C)[C@H](O)[C@@H](O)[C@H]5O)[C@@H](O)[C@H](O)[C@H]4O)cc3o2)cc1 [ACACIIN] |
| 13.9 | O=c1cc(-c2ccc(O)cc2)oc2cc(O[C@@H]3O[C@H](CO)[C@@H](O)[C@H](O)[C@H]3O)cc(O)c12 [APIGETRIN] |
| 0 | C[C@@H]1O[C@@H](O[C@H]2C(=O)c3c(O)cc(O)cc3O[C@@H]2c2ccc(O)c(O)c2)[C@H](O)[C@H](O)[C@H]1O [ASTILBIN] |
| 30.8 | O=c1c(O[C@@H]2O[C@@H](CO)[C@H](O)[C@H]2O)c(-c2ccc(O)c(O)c2)oc2cc(O)cc(O)c12 [AVICULARIN] |
| 61.5 | COc1cc(-c2cc(=O)c3c(O)cc(O)cc3o2)ccc1O [CHRYSOERIOL] |
| 0.5 | COc1cc2oc(-c3ccc(O)c(O)c3)cc(=O)c2c(O)c1OC [CIRSILIOL] |
| 12.2 | COc1cc2oc(-c3ccc(O[C@@H]4O[C@H](CO)[C@@H](O)[C@H](O)[C@H]4O)cc3)cc(=O)c2c(O)c1OC [CIRSIMARIN] |
| 0 | O=c1c(-c2ccc(O)cc2)coc2cc(O[C@@H]3O[C@H](CO)[C@@H](O)[C@H](O)[C@H]3O)ccc12 [DAIDZIN] |
| 0 | COc1ccc(-c2cc(=O)c3c(O)cc(O[C@@H]4O[C@H](CO[C@@H]5O[C@@H](C)[C@H](O)[C@@H](O)[C@H]5O)[C@@H](O)[C@H](O)[C@H]4O)cc3o2)cc1O [DIOSMIN] |
| 33.5 | COc1ccc(-c2cc(=O)c3c(O)c([C@@H]4O[C@H](CO)[C@@H](O)[C@H](O)[C@H]4O)c(OC)cc3o2)cc1 [EMBIGENIN] |
| 22.8 | COc1ccc(-c2cc(=O)c3c(O)c([C@H]4O[C@H](CO)[C@@H](O)[C@H](O)[C@H]4O[C@H]4O[C@H](C)[C@@H](O)[C@H](O)[C@@H]4O)c(OC)cc3o2)cc1 [EMBININ] |

| inhibition at 50 µg/mL [%] | SMILES |
| --- | --- |
| 0.8 | O=c1c(-c2ccc(O)cc2)coc2cc(O[C@@H]3O[C@H](CO)[C@@H](O)[C@H](O)[C@H]3O)cc(O)c12 [GENISTIN] |
| 43 | O=c1c(O[C@@H]2O[C@H](CO)[C@H](O)[C@H](O)[C@H]2O)c(-c2ccc(O)c(O)c2)oc2cc(O)cc(O)c12 [HYPEROSIDE] |
| 0 | COc1cc(-c2coc3cc(O[C@@H]4O[C@H](CO)[C@@H](O)[C@H](O)[C@H]4O)c(OC)c(O)c3c2=O)cc(O)c1OC [IRIDIN] |
| 25.2 | O=c1cc(-c2ccc(O)c(O)c2)oc2cc(O)c([C@@H]3O[C@H](CO)[C@@H](O)[C@H](O)[C@H]3O)c(O)c12 [ISOORIENTIN] |
| 0 | O=c1c(O[C@@H]2O[C@@H](CO)[C@H](O)[C@H]2O)c(-c2ccc(O)cc2)oc2cc(O)cc(O)c12 [JUGLANIN] |
| 0 | COc1cc2oc(-c3ccc(O)cc3)c(O)c(=O)c2c(O)c1[C@@H]1O[C@H](CO)[C@@H](O)[C@H](O)[C@H]1O [KEYAKININ] |
| 18 | O=C1C[C@@H](c2ccc(O[C@@H]3O[C@H](CO)[C@@H](O)[C@H](O)[C@H]3O)cc2)Oc2cc(O)ccc21 [LIQUIRITIN] |
| 20.1 | C[C@@H]1O[C@@H](O[C@H]2[C@H](Oc3cc(O)c4c(=O)cc(-c5ccc(O)c(O)c5)oc4c3)O[C@H](CO)[C@@H](O)[C@@H]2O)[C@H](O)[C@H](O)[C@H]1O [LONICERIN] |
| 22.2 | COc1cc(-c2oc3cc(O)cc(O)c3c(=O)c2O[C@@H]2O[C@H](CO[C@@H]3O[C@@H](C)[C@H](O)[C@@H](O)[C@H]3O)[C@@H](O)[C@H](O)[C@H]2O)ccc1O [NARCISSIN] |
| 11.5 | COc1ccc(-c2cc(=O)c3c(O)c(OC)c(O[C@@H]4O[C@H](CO[C@@H]5O[C@@H](C)[C@H](O)[C@@H](O)[C@H]5O)[C@@H](O)[C@H](O)[C@H]4O)cc3o2)cc1 [PECTOLINARIN] |
| 0 | CC(C)=CCc1c(O[C@@H]2O[C@H](CO)[C@@H](O)[C@H](O)[C@H]2O)cc(O)c2c1O[C@H](c1ccc(O)cc1)[C@@H](O)C2=O [PHELLAMURIN] |
| 0 | COc1ccc([C@@H]2CC(=O)c3c(O)cc(O[C@@H]4O[C@H](CO)[C@@H](O)[C@H](O)[C@H]4O[C@@H]4O[C@@H](C)[C@H](O)[C@@H](O)[C@H]4O)cc3O2)cc1 [PONCIRIN] |
| 4.2 | O=C1C[C@@H](c2ccc(O)cc2)Oc2cc(O[C@@H]3O[C@H](CO)[C@@H](O)[C@H](O)[C@H]3O)cc(O)c21 [PRUNIN] |
| 36.5 | O=C(O)[C@H]1O[C@@H](Oc2c(-c3ccc(O)c(O)c3)oc3cc(O)cc(O)c3c2=O)[C@H](O)[C@@H](O)[C@@H]1O [QUERCETIN GLUCURONIDE] |
| 33.1 | O=c1c(O[C@@H]2OC[C@@H](O)[C@H](O)[C@H]2O)c(-c2ccc(O)c(O)c2)oc2cc(O)cc(O)c12 [REYNOUTRIN] |
| 12.9 | C[C@@H]1O[C@@H](O[C@H]2[C@H](Oc3cc(O)c4c(=O)cc(-c5ccc(O)cc5)oc4c3)O[C@H](CO)[C@@H](O)[C@@H]2O)[C@H](O)[C@H](O)[C@H]1O [RHOIFOLIN] |
| 15.3 | O=c1c(-c2ccc(O[C@@H]3O[C@H](CO)[C@@H](O)[C@H](O)[C@H]3O)cc2)coc2cc(O)cc(O)c12 [SOPHORICOSIDE] |
| 24.9 | COc1cc2oc(-c3ccc(O)cc3)cc(=O)c2c(O)c1[C@@H]1O[C@H](CO)[C@@H](O)[C@H](O)[C@H]1O [SWERTISIN] |

The remaining lines, values behind:

| SMILES | inhibition at 50 µg/mL [%] |
| --- | --- |
| CC(=O)Oc1cc(OC(C)=O)c2c(=O)c(OC(C)=O)c(-c3ccc(OC(C)=O)c(OC(C)=O)c3)oc2c1 | 0 |
| O=c1c(O)c(-c2ccc(O)cc2)oc2cc(O[C@@H]3O[C@H](CO)[C@@H](O)[C@H](O)[C@H]3O)cc(O)c12 | 0 |
| CC(=O)Oc1cc(OC(C)=O)c2c(=O)c(OC(C)=O)c(-c3cc(OC(C)=O)c(OC(C)=O)c(OC(C)=O)c3)oc2c1 | 13.6 |
| CC(=O)Oc1ccc(-c2cc(=O)c3c(OC(C)=O)c(OC(C)=O)c(OC(C)=O)cc3o2)cc1 | 0 |
| CC(=O)Oc1cc(OC(C)=O)c2c(=O)cc(-c3ccc(OC(C)=O)c(OC(C)=O)c3)oc2c1 | 47.7 |
| O=C1c2c(O)cc(O)cc2O[C@H](c2ccc(O)c(O)c2)[C@H]1O [(+)-TAXIFOLIN] | 17.8 |
| COc1cc2oc(-c3ccccc3)cc(=O)c2c(OC)c1OC [BAICALEIN TRIMETHYL ETHER] | 22 |
| COc1cc(-c2cc(=O)c3c(O)c(OC)c(OC)cc3o2)ccc1O [CIRSILENEOL] | 1 |
| COc1cc2oc(-c3ccc(O)cc3)cc(=O)c2c(O)c1OC [CIRSIMARITIN] | 0 |
| O=c1c(-c2ccc(O)cc2)coc2cc(O)ccc12 [DAIDZEIN] | 0 |
| O=C1C[C@@H](c2ccc(O)c(O)c2)Oc2cc(O)cc(O)c21 [ERIODICTYOL] | 47.8 |
| COc1c(O)cc2oc(-c3ccc(O)c(O)c3)cc(=O)c2c1O [EUPAFOLIN] | 49 |
| O=c1cc(-c2ccccc2)oc2ccccc12 [FLAVONE] | 15.4 |
| COc1ccc(-c2coc3cc(O)ccc3c2=O)cc1 [FORMONONETIN] | 17.6 |
| O=C1c2ccc(O)cc2O[C@H](c2ccc(O)c(O)c2)[C@H]1O [FUSTIN] | 27.2 |
| O=c1c(-c2ccc(O)cc2)coc2cc(O)cc(O)c12 [GENISTEIN] | 0 |
| COc1cc(-c2coc3cc(O)c(OC)c(O)c3c2=O)cc(O)c1OC [IRIGENIN] | 0 |
| COc1cc(-c2coc3cc4c(c(OC)c3c2=O)OCO4)cc(OC)c1OC [IRISFLORENTIN] | 0 |
| COc1c2c(cc3occ(-c4ccc(O)cc4)c(=O)c13)OCO2 [IRISOLONE] | 0 |
| COc1ccc(-c2coc3cc(O)c(OC)c(O)c3c2=O)cc1O [IRISTECTORIGENIN A] | 0 |
| COc1cc(-c2oc3cc(O)cc(O)c3c(=O)c2O)ccc1O [ISORHAMNETIN] | 49 |
| O=C1C[C@@H](c2ccc(O)cc2)Oc2cc(O)ccc21 [LIQUIRTIGENIN] | 100 |
| O=c1cc(-c2ccc(O)c(O)c2)oc2c([C@@H]3O[C@H](CO)[C@@H](O)[C@H](O)[C@H]3O)c(O)cc(O)c12 [ORIENTIN] | 15.3 |
| COc1ccc(-c2cc(=O)c3c(O)c(OC)c(O)cc3o2)cc1 [PECTOLINARIGENIN] | 32.1 |
| O=c1c(O)c(-c2ccc(O)c(O)c2)oc2cc(O[C@@H]3O[C@H](CO)[C@@H](O)[C@H](O)[C@H]3O)cc(O)c12 [QUERCIMERITRIN] | 0 |
| O=c1c(O)c(-c2cc(O)c(O)c(O)c2)oc2cc(O)ccc12 [ROBINETIN] | 82.9 |
| COc1cc(O)c2c(c1)O[C@H](c1ccc(O)cc1)CC2=O [SAKURANETIN] | 0 |
| COc1ccc(-c2cc(=O)c3c(O)cc(O)c(-c4cc(-c5cc(=O)c6c(O)cc(OC)cc6o5)ccc4OC)c3o2)cc1 [SCIADOPITISIN] | 0 |
| O=C(O)[C@H]1O[C@@H](Oc2cc3oc(-c4ccc(O)cc4)cc(=O)c3c(O)c2O)[C@H](O)[C@@H](O)[C@@H]1O [SCUTELLARIN] | 16.6 |
